Entries after “also recorded” stand apart in the source; their conditions may differ.
Assays:
[1] = test system: MV4-11 human acute myeloid leukemia cells; assay: Cancer cell viability, FACS with propidium iodide staining; assay type: cell-based; conditions: 24 hours
Method: In order to assess the effect of compounds of Table 2 on cancer cell viability, the in vitro effect of the compounds on MV4-11 human acute myeloid leukemia cells was evaluated. The cancer cells were incubated in RPMI cell medium with 1% fetal calf serum (FCS) at a concentration of 2×10^5 cells/well at a final volume of 250 μl in 96-well plate. The compounds were added to the cells at the indicated concentrations. The cells were incubated for 24 hours and the number of dead and viable cells was then evaluated by fluorescence-activated cell sorting (FACS), using propidium iodide (PI) staining.

MCP-1 = MCP-1 (Homo sapiens, UniProt P13500); assay: Migration of THP-1 cells towards MCP-1 (Transwell migration assay); assay type: cell-based; conditions: BKT300 at 78% purity
MCP-1, sequence (P13500 24-99): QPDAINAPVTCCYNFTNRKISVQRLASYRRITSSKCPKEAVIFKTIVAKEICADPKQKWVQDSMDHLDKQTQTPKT
Method: (§1) 600 μl of RPMI medium was added to the lower chambers of Transwell® transmigration plates, supplemented with 2 μg/ml of MIP3a, 100 ng/ml of SDF-1 or 10 ng/ml of MCP-1. The tested small molecule was added to the lower chambers at the indicated concentration, except in control samples. The MIP3a, SDF-1 or MCP-1 was incubated with the small molecule for 30 minutes at room temperature before the initiation of the migration assay. Following 30 minutes of incubation 2×10^5 immune cells were added to the upper chambers of the transmigration plates in a total volume of 100 μl. Cells which migrated within 3 hours to the bottom chamber of the Transwell® plates were counted using a FACScalibur™ flow cytometer.
To evaluate migration towards MCP-1, THP-1 cells were re-suspended in RPMI medium containing 1% fetal calf serum (FCS).

SDF-1 = SDF-1 (Homo sapiens, UniProt P48061); assay: Migration of Jurkat cells towards SDF-1 (Transwell migration assay); assay type: cell-based; conditions: for Selectivity of inhibition of SDF-1 function over MCP-1 and/or MIP3a function: at a concentration of about 10 μg/ml
SDF-1, sequence (P48061 22-93): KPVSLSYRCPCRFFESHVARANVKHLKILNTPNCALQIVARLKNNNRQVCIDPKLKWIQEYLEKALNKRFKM
Method: as §1
To evaluate migration towards SDF-1, Jurkat cells were re-suspended in RPMI medium containing 1% fetal calf serum (FCS).

MIP3a = MIP3a (Homo sapiens, UniProt P78556); assay: Migration of CD4+ T-cells toward MIP3a (Transwell migration assay); assay type: cell-based
MIP3a, sequence (P78556 27-96): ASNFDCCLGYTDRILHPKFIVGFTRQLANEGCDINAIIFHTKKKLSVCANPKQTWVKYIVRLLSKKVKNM
Method: as §1
To evaluate migration toward MIP3a, peripheral blood mononuclear cells (PBMCs) were isolated from heparinized venous blood by centrifugation over Ficoll Histopaque® 1077. CD4+ T cells were further isolated with RosetteSep™ human CD4+ T-cell Enrichment cocktail (StemCell Technologies Inc.), according to the manufacturer's instructions. CD4+ T cells were re-suspended in RPMI medium containing 1% fetal calf serum (FCS).

cancer cells = conditions: literature reports; cited from earlier work
Legionella = conditions: cited from earlier work
[2] = test system: MCP-1 expression in adipocytes; conditions: reported by Kuroyanagi et al.; cited from earlier work

SMILES	Inhibition of migration of monocytic THP-1 cells towards MCP-1 (MCP-1; 10 μg/ml)	Inhibition of migration of monocytic THP-1 cells towards MCP-1 (MCP-1; 50 μg/ml)	Inhibition of migration of lymphocytic Jurkat cells towards SDF-1 (SDF-1; 10 μg/ml, BKT300 at 78% purity)	Inhibition of CD4+ T-cell migration towards MIP3a (MIP3a; 10 μg/ml)	Inhibition of CD4+ T-cell migration towards MIP3a (MIP3a; 50 μg/ml, BKT300 at 78% purity)	other results
CC1CCC2=C(CCCC2(C)C(=O)O)C1(C)CCc1ccoc1 (stereo not drawn) [BKT211]	complete inhibition	strong inhibition	significantly inhibited; also recorded: strong inhibition	–	–	Cell death of MV4-11 cells ([1]; 10 μg/ml): induced cell death
Cc1cc(O)c2c(=O)c3c(O)cc(O)c4c5c(O)cc(O)c6c(=O)c7c(O)cc(C)c8c1c2c(c34)c(c78)c65 [BKT203, Hypericin]	–	–	significantly inhibited; also recorded: strong inhibition	completely inhibited	–	–
CCCCCc1cc2cc(O)cc(Oc3c(O)cc(O)c(C(=O)O)c3CCCCC)c2c(=O)o1 [BKT400]	–	–	–	–	–	Inhibition of migration of lymphocytic Jurkat cells towards SDF-1 (SDF-1; 1 and 10 μg/ml tested (FIG. 15)): inhibit the migration
C/C(=C/COc1c2occc2cc2ccc(=O)oc12)CO [BKT208, Trichoclin]	–	–	significantly inhibited	–	–	–
Cc1c(O)c(C)c2c(c1O)C(=O)CC(c1ccc(O)c(O)c1)O2 (stereo not drawn) [BKT204, Cyrtominetin]	partial inhibition	strong inhibition	significantly inhibited	–	–	–
CCCCCCCCC(=O)/C=C/C=C/C(=O)CCCC(=O)O [BKT209]	no apparent effect	strong inhibition	significantly inhibited; also recorded: strong inhibition	–	completely inhibited	Selectivity of inhibition of SDF-1 function over MCP-1 and/or MIP3a function (SDF-1): relatively selective manner
CC1(C)CC[C@]2(C(=O)O)CC[C@]3(C)C(=CC[C@@H]4[C@@]5(C)C[C@@H](O)[C@H](O)[C@@](C)(CO)[C@@H]5CC[C@]43C)[C@@H]2C1 [BKT216, Arjunolic acid]	partial inhibition	strong inhibition	–	–	–	Inhibition of cancer cells (cancer cells): inhibit cancer cells
CC(C)=CCc1cc(OC2O[C@H](CO)[C@@H](O)[C@H](O)[C@H]2O)cc(CC=C(C)C)c1C(O)C(=O)O (stereo partly drawn) [BKT213]	–	–	significantly inhibited; also recorded: strong inhibition	–	completely inhibited	Selectivity of inhibition of SDF-1 function over MCP-1 and/or MIP3a function (SDF-1): relatively selective manner
O=C(O)c1cc(O)c2c(c1)[C@H]([C@H]1c3cc(C(=O)O)cc(O)c3C(=O)c3c(O[C@@H]4O[C@H](CO)[C@@H](O)[C@H](O)[C@H]4O)cccc31)c1cccc(O[C@@H]3O[C@H](CO)[C@@H](O)[C@H](O)[C@H]3O)c1C2=O [BKT210, Sennoside A]	–	–	significantly inhibited	significantly inhibited	completely inhibited	–
COC(=O)c1c(O)cc2c(c1C)C(=O)c1c(O)cccc1C2=O [BKT207, Aloesaponarin I]	–	–	significantly inhibited; also recorded: strong inhibition	completely inhibited	–	–
CCC/C=C\C/C=C\CCCCCCCc1cccc(O)c1C(=O)O [BKT206]	partial inhibition	strong inhibition	significantly inhibited; also recorded: strong inhibition	completely inhibited	–	Cell death of MV4-11 cells ([1]; 10 μg/ml): induced cell death
CCCCCC(=O)Cc1cc(O)cc(O)c1Oc1cc(O)cc2cc(CCCCC)oc(=O)c12 [8-(2,4-dihydroxy-6-(2-oxoheptyl)-phenoxy)-6-hydroxy-3-pentyl-1H-isochromen-1-one]	–	–	–	–	–	Antibacterial activity against Legionella (Legionella): potent antibacterial activity
C=C1CCC2C(C)(C)C(O)CCC2(C)C1COc1ccc2ccc(=O)oc2c1 (stereo not drawn) [BKT202]	–	–	–	significantly inhibited	completely inhibited	–
C=C[C@H](O)C#CC#C[C@@H](O)/C=C\CCCCCCC [BKT212, Falcarindiol]	–	–	significantly inhibited; also recorded: strong inhibition	completely inhibited	–	Inhibition of cancer cells (cancer cells): inhibit cancer cells
CCCCCC=CC=CC(=O)CCCCCCCC(=O)O [BKT205]	no apparent effect	strong inhibition	significantly inhibited; also recorded: strong inhibition	–	completely inhibited	Selectivity of inhibition of SDF-1 function over MCP-1 and/or MIP3a function (SDF-1): relatively selective manner
CC(C)=CCc1c(O[C@@H]2O[C@H](CO)[C@@H](O)[C@H](O)[C@H]2O)cc(O)c2c1O[C@H](c1ccc(O)cc1)CC2=O [BKT201]	no apparent effect	strong inhibition	significantly inhibited; also recorded: strong inhibition	–	completely inhibited	Selectivity of inhibition of SDF-1 function over MCP-1 and/or MIP3a function (SDF-1): relatively selective manner
CC(C)=CCC/C(C)=C/COc1ccc2ccc(=O)oc2c1 [BKT215, Auraptene]	–	–	–	–	–	Cell death of MV4-11 cells ([1]; 20 am (equivalent to 6 μg/ml)): induced cell death; MCP-1 expression in adipocytes [2]: suppress MCP-1 expression; Inhibition of cancer cells (cancer cells): inhibit cancer cells

— patent US10959979B2, “Small molecules against cancer” (Biokine Therapeutics Ltd., priority 2015, dated 2021)
